Assay results published in PubChem BioAssay AID1963848 (Molecular Pharmacology Branch, DTP, NCI, 2024).
pIC50: −log10 of the molar value.

Tested on: 379773-124-R-J2-PDC spheroid viability
Test: Anticancer human tumor 379773-124-R-J2-PDC patient-derived endometrial carcinoma cell line growth inhibition [POLQ]
Conditions: spheroids with HUVEC and MSC; for pIC50: curve of first compound; for viability, T/C: stronger effect = lower value; active means viability on the fitted dose curve at most 10% of control; inactive means the rest
Protocol: Multicellular complex tumor spheroid response to Polymerase (POL) inhibitors (novobiocin, ART-558, RP6685) in combination with a variety of drugs and investigational agents in selected tumor cell lines
The POL inhibitors (novobiocin, ART-558, and RP6685) were evaluated both individually and in combination with standard of care and investigational anticancer small molecules within a complex spheroid model of solid tumors. . Complex spheroids include a stromal component modeled by human endothelial cells (HUVEC) and fibroblasts modeled by human mesenchymal stem cells (MSCs). The concentration ranges selected for each drug and investigational agent were based upon clinically achievable concentrations if the clinical Cmax of the agent was known.
Compounds. The drugs and investigational agents: novobiocin (NSC847541), ART-558 (NSC835418), RP-6685 (NSC848927), peposertib (NSC802822), ceralasertib (NSC780249), elimusertib (NSC800525), camonsertib (NSC841442), AZD-1390 (NSC803789), olaparib (NSC753686), talazoparib (NSC767125), rucaparib (NSC756644), sotorasib (NSC818433), MRTX-1133 (NSC836407), SN-38 (NSC673596), topotecan (NSC609699), epotoside (NSC141540), doxorubicin (NSC123127), gemcitabine (NSC613327), 5-fluorouracil (NSC19893), paclitaxel (NSC125973), vemurafenib (NSC761431), MSA-2 (NSC828583), SN-011 (NSC837082), adavosertib (NSC754352), prexasertib (NSC758257), carboplatin (NSC241240) and oxaliplatin (NSC266046), were obtained from the National Cancer Institute (NCI) Developmental Therapeutics Program Chemical Repository (21). The FDA-approved anticancer drug set is available from the Developmental Therapeutics Program at https://dtp.cancer.gov/organization/dscb/obtaining/. […] The stock solutions were prepared in dimethyl sulfoxide (DMSO, Sigma-Aldrich, St. Louis, MO, cat. D2650), except for the platinum compounds which were prepared in saline (Quality Biological, Gaithersburg, MD, cat. 114-055-101), at 800-fold the tested concentration and stored at -70 degrees C prior to their use. All drugs and investigational agents were tested over a range starting from a high concentration at or near the clinical Cmax and decreasing in half-log increments. If the clinical Cmax for an agent had not been determined, the highest concentration tested was 10 microM, except for SN-38, which was tested at a high concentration of 1 microM.
Cell Culture. All cells were maintained in an incubator at 37 degrees C and 5% CO2 with 95% humidity. The PDC lines were cultured according to standard operating procedures established by the NCI PDMR (https://pdmr.cancer.gov). Table 3 of the manuscript, lists the cell lines along with the number of the three cell types plated to form the mct-spheroids and media for tumor cell growth. After thawing, all PDC lines, except 997537-175-T-J1-PDC and 415267-285-R-J2-PDC, were cultured in Matrigel-coated flasks prepared with a working solution of 1X Ham's F-12 nutrient mix, without supplementation (Thermo Fisher Scientific, cat. 11765054), 100 U/mL penicillin-streptomycin (Thermo Fisher Scientific, cat. 15140122), and 2.5% Matrigel (Corning Inc., Corning, NY, cat. 354248) for the first three passages. The two PDC lines 997537-175-T-J1-PDC and 415267-285-R-J2-PDC were cultured on uncoated flasks. The 857933-349-R-J2-PDC line was cultured in 6C/Colon 1B media containing advanced DMEM/F-12 (Thermo Fisher Scientific, cat. 12634028), 10 mM HEPES (Thermo Fisher Scientific, cat. 15630080), 1X GlutaMAX supplement (Thermo Fisher Scientific, cat. 35050061), 0.1 mg/mL primocin (InvivoGen, San Diego, CA, cat. ant-pm-2), 10% defined fetal bovine serum, heat inactivated (HyClone Laboratories Inc., Logan, UT, cat. SH30070.03HI), 50% L-WRN conditioned media (ATCC, cat. CRL-3276), 1.25 mM N-Acetyl-L-cysteine (Sigma-Aldrich, cat. A9165), 10 mM nicotinamide (Sigma-Aldrich, cat. N0636), 1X B-27 supplement (Thermo Fisher Scientific, cat. 17504044), 1X N-2 supplement (Thermo Fisher Scientific, cat. […]

[1] = second compound 0.0316 µM, first compound 0.0316 µM
[2] = second compound 0.0316 µM, first compound 0.1 µM
[3] = second compound 0.0316 µM, first compound 0.316 µM
[4] = second compound 0.0316 µM, first compound 1 µM
[5] = second compound 0.0316 µM, first compound 3.16 µM
[6] = second compound 0.0316 µM, first compound 10 µM
[7] = second compound 0.1 µM, first compound 0.0316 µM
[8] = second compound 0.1 µM, first compound 0.1 µM
[9] = second compound 0.1 µM, first compound 0.316 µM
[10] = second compound 0.1 µM, first compound 1 µM
[11] = second compound 0.1 µM, first compound 3.16 µM
[12] = second compound 0.1 µM, first compound 10 µM
[13] = second compound 0.316 µM, first compound 0.0316 µM
[14] = second compound 0.316 µM, first compound 0.1 µM
[15] = second compound 0.316 µM, first compound 0.316 µM
[16] = second compound 0.316 µM, first compound 1 µM
[17] = second compound 0.316 µM, first compound 3.16 µM
[18] = second compound 0.316 µM, first compound 10 µM
[19] = second compound 1 µM, first compound 0.0316 µM
[20] = second compound 1 µM, first compound 0.1 µM
[21] = second compound 1 µM, first compound 0.316 µM
[22] = second compound 1 µM, first compound 1 µM
[23] = second compound 1 µM, first compound 3.16 µM
[24] = second compound 1 µM, first compound 10 µM
[25] = second compound 3.16 µM, first compound 0.0316 µM
[26] = second compound 3.16 µM, first compound 0.1 µM
[27] = second compound 3.16 µM, first compound 0.316 µM
[28] = second compound 3.16 µM, first compound 1 µM
[29] = second compound 3.16 µM, first compound 3.16 µM
[30] = second compound 3.16 µM, first compound 10 µM
[31] = second compound 10 µM, first compound 0.0316 µM
[32] = second compound 10 µM, first compound 0.1 µM
[33] = second compound 10 µM, first compound 0.316 µM
[34] = second compound 10 µM, first compound 1 µM
[35] = second compound 10 µM, first compound 3.16 µM
[36] = second compound 10 µM, first compound 10 µM
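Further: spheroids exposed to drugs for seven days before readout.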
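Wherever viability, T/C is given: percent viability relative to DMSO vehicle control taken as 100%.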

CC1COCCN1c1cc(C2(O)CC3CCC(C2)O3)c2cnn(-c3ccn[nH]3)c2n1 (centres undefined) + Nc1ccc(C#CCN(C(=O)Cc2ncc(C(F)(F)F)cc2C(F)(F)F)c2ccc(F)cc2)nn1
6.94: pIC50 (second compound 10 µM)
6.98: pIC50 (second compound 0.1 µM)
6.89: pIC50 (second compound 0.0316 µM)
6.92: pIC50 (second compound 0.316 µM)
6.90: pIC50 (second compound 3.16 µM)
6.97: pIC50 (second compound 1 µM)
inactive: viability, T/C [1] 110% | viability, T/C [2] 59.9% | viability, T/C [3] 13.5% | viability, T/C [7] 92% | viability, T/C [8] 51.4% | viability, T/C [9] 16% | viability, T/C [13] 83.2% | viability, T/C [14] 56.6% | viability, T/C [15] 16.1% | viability, T/C [19] 86.9% | viability, T/C [20] 52.5% | viability, T/C [21] 16.4% | viability, T/C [25] 83% | viability, T/C [26] 59.3% | viability, T/C [27] 12.5% | viability, T/C [31] 82.8% | viability, T/C [32] 54.5% | viability, T/C [33] 18.5%
active: viability, T/C [4] 12.8% | viability, T/C [5] 11.2% | viability, T/C [6] 4.19% | viability, T/C [10] 14% | viability, T/C [11] 10.2% | viability, T/C [12] 3.29% | viability, T/C [16] 11.8% | viability, T/C [17] 10.4% | viability, T/C [18] 4.27% | viability, T/C [22] 13.6% | viability, T/C [23] 8.92% | viability, T/C [24] 3.67% | viability, T/C [28] 11.8% | viability, T/C [29] 9.65% | viability, T/C [30] 3.56% | viability, T/C [34] 14.6% | viability, T/C [35] 9.99% | viability, T/C [36] 3.04%

C=CC(=O)N1CCN(c2nc(=O)n(-c3c(C)ccnc3C(C)C)c3nc(-c4c(O)cccc4F)c(F)cc23)C(C)C1 (centres undefined) + COC1C(OC(N)=O)C(O)C(Oc2ccc3c(O)c(NC(=O)c4ccc(O)c(CC=C(C)C)c4)c(=O)oc3c2C)OC1(C)C
inactive: viability, T/C [1] 87.3% | viability, T/C [2] 78.7% | viability, T/C [3] 91.3% | viability, T/C [4] 85.1% | viability, T/C [5] 85.7% | viability, T/C [6] 72.1% | viability, T/C [7] 87.3% | viability, T/C [8] 87.2% | viability, T/C [9] 82.2% | viability, T/C [10] 91.1% | viability, T/C [11] 87.9% | viability, T/C [12] 95% | viability, T/C [13] 91.2% | viability, T/C [14] 86.7% | viability, T/C [15] 86.8% | viability, T/C [16] 85.1% | viability, T/C [17] 79.3% | viability, T/C [18] 82.6% | viability, T/C [19] 92.1% | viability, T/C [20] 94.8% | viability, T/C [21] 93.9% | viability, T/C [22] 88.8% | viability, T/C [23] 73.8% | viability, T/C [24] 95.8% | viability, T/C [25] 73.2% | viability, T/C [26] 84.6% | viability, T/C [27] 82.9% | viability, T/C [28] 85% | viability, T/C [29] 85.9% | viability, T/C [30] 72.1% | viability, T/C [31] 91.1% | viability, T/C [32] 85.1% | viability, T/C [33] 81.5% | viability, T/C [34] 80.5% | viability, T/C [35] 86% | viability, T/C [36] 89.4%
< 5.00: pIC50 (second compound 0.0316 µM) | pIC50 (second compound 0.1 µM) | pIC50 (second compound 0.316 µM) | pIC50 (second compound 1 µM) | pIC50 (second compound 3.16 µM) | pIC50 (second compound 10 µM)
